Test results: patent US20190183851A1, “USE OF 3,4,7-TRIHYDROXYISOFLAVONE OR 3-METHOXYDAIDZEIN IN PREPARATION OF DRUG FOR INHIBITING PLATELET AGGREGATION AND THROMBOSIS” (Kunming Institute of Zoology, Chinese Academy of Sciences, priority 2017, published 2019)

Legend:
[1] = system: washed human platelets; experiment: collagen-induced platelet aggregation in washed human platelets; format: cell-based; conditions: 0.6 μg/mL collagen
Method: The collagen-induced platelet aggregation was detected by using washed human platelets. […] The platelet washing method was as follows: a. 1.4 mL platelets (concentrated platelet plasma) were poured into each 1.5 mL EP tube, and centrifuged at 400 g under room temperature for 5 min, and the supernatant was discarded; b. the platelets in each tube were resuspended with 0.5 mL of a tyrode A solution, and two tubes of resuspended platelets were combined into a new 1.5 mL EP tube, mixed well and centrifuged at 400 g under room temperature for 5 min; c. the platelets in each tube were resuspended with 1 mL of the tyrode A solution, transferred into a new EP tube, and centrifuged at room temperature at 400 g under room temperature for 5 min; d. the platelets in each tube were resuspended with 1 mL of a tyrode B solution, and the platelets were adjusted to an appropriate concentration with the tyrode B solution.

[2] = system: Healthy human platelets; experiment: ADP-induced platelet aggregation in PRP; format: cell-based; conditions: 70 μmol/L ADP; for concentration dependence of inhibition of ADP-induced platelet aggregation: FIGS. 3 and 4
Method: Healthy human platelets were diluted with plasma to 2.5×10^8 platelets per mL. 300 μL of plasma-rich platelets was taken, added into different concentrations of samples at 37° C. and maintained at this temperature for 5 min, then added with 70 μmol/L ADP to induce aggregation, and an aggregation curve within 5 min was plotted on a platelet aggregation instrument. Platelet aggregation without sample treatment was used as a control.
300 μM of 3-methoxydaidzein could inhibit about 50% of platelet aggregation, while 100 μM of 3,4,7-trihydroxyisoflavone could inhibit about 50% of platelet aggregation.

[3] = system: mouse-tail thrombus; experiment: carrageenan-induced mouse-tail thrombosis model; format: in vivo, Kunming mice; conditions: 24 h; for rate of thrombus inhibition versus dose: gavage 33, 100 and 300 μmol/kg; for rate of thrombus inhibition versus dose / inhibition of thrombosis in mouse tail versus negative control: carrageenan 40 mg/kg i.p.
Method: This embodiment relates to a carrageenan-induced mouse-tail thrombosis model.
The experiment animals, male Kunming mice, each with a body weight of 20-25 g, were randomly divided into groups (n=10) after fed for one week. The first group was a DMSO control group, the sample groups were gavaged with 3,4,7-trihydroxyisoflavone and 3-methoxydaidzein at concentrations respectively of 33, 100 and 300 μmol/kg, and the positive control was gavaged with 300 μmol/kg clopidogrel. 30 min after intragastric administration, carrageenan (type I, Sigma) was injected intraperitoneally into the mice at a dose of 40 mg/kg. Since the rate of thrombosis was >90% at a low temperature, the feeding temperature was 18° C. After 24 h, the mean length of thrombosis was determined according to the color change of the tail skin.

[4] = system: tail bleeding time of the mouse; experiment: evaluation of bleeding risk, tail bleeding time; format: in vivo, C57BL/6 mice; conditions: 80 mg/kg by gavage; 3, 6 and 12 hours after administration; mice
Method: This embodiment relates to an evaluation of bleeding risk of 3,4,7-trihydroxyisoflavone and 3-methoxydaidzein.
Each group included 8 male C57BL/6 (18-20 g). The test sample group and the control group were administered by gavage. After 3, 6 and 12 hours of administration, the mice were placed into a self-made special holder to make the tails pass through a trimmed 1 mL pipette tip. 5 mm of the tail tip was cut off with a sterilized razor blade, and the mouse tail was immediately immersed into normal saline at 37° C. The bleeding time of the tail was observed by using the bloodstream stop time as an indicator.

SMILES	inhibition at 20 µM ([1]; Platelet, 20 μM compound, washed human platelets)	concentration dependence of inhibition of ADP-induced platelet aggregation [2]	inhibition at 300 µM ([2]; Homo sapiens, Platelet, 300 μM compound)	rate of thrombus inhibition versus dose [3]	inhibition of thrombosis in mouse tail versus negative control ([3]; oral 300 μmol/kg)	tail bleeding activity versus non-administrated group (FIG. 9) [4]	concentration dependence of inhibition of collagen-induced platelet aggregation ([1]; FIGS. 1 and 2)	inhibition of platelet aggregation ([1]; 20 μM compound, washed human platelets)	inhibition at 100 µM ([2]; Homo sapiens, Platelet, 100 μM compound)	average thrombus length compared with clopidogrel ([3]; gavage 300 μmol/kg, compared with 300 μmol/kg clopidogrel)	inhibition of thrombosis in mouse tail versus negative control ([3]; oral 100 μmol/kg)	tail bleeding activity versus non-administrated group (FIG. 8) [4]
COc1cc(-c2coc3cc(O)ccc3c2=O)ccc1O [3-methoxydaidzein]	~50%	gradient-dependent manner	~50%	increased along with the increase of concentration	significantly inhibit	did not show any significant bleeding activity						
O=c1c(-c2ccc(O)c(O)c2)coc2cc(O)ccc12 [3,4,7-trihydroxyisoflavone]		gradient-dependent manner		increased along with the increase of concentration			gradient-dependent manner	completely inhibit	~50%	shorter than that of the group gavaged with 300 μmol/kg of clopidogrel	significantly inhibit	did not show any significant bleeding activity
COC(=O)[C@H](c1ccccc1Cl)N1CCc2sccc2C1 [clopidogrel, reference compound]						increased bleeding significantly						increased bleeding significantly
